Consider two compounds from patent publication US8012983B2, “Substituted triazolopyrazines useful for the treatment of degenerative and inflammatory diseases” (Galapagos NV, priority 2008, dated 2011).

pIC50: −log10 of the molar value.

The assay has as its system MMP13 expression in SW1353 chondrosarcoma cell line. The assay can be described thus: MMP13 assay: IL-1/OSM-driven MMP13 expression in SW1353 cells (MMP13 ELISA). The note with it: Homo sapiens, IL-1β and OSM, 48 hr. In kind it is cell-based. Here is the method: The protocol of the MMP13 ELISA is described in section 4.1, then testing of compounds on release of IL-1/OSM-driven MMP13 expression in SW1353 chondrosarcoma cell line is described in section 4.2.
A 384 well format ELISA for measurement of MMP13 was developed. Various primary antibodies were tested, as well as various ELISA protocols. The following protocol is developed and validated to measure MMP13 levels in supernatant of cell cultures in 384 well plates.
Black maxisorb 384 well plates (Nunc 460518) are coated with 35 μl of a buffered solution containing 1.5 μg/mL anti-MMP13 antibody MAB511 (R&D systems). The antibody is diluted in carbonate-bicarbonate coating buffer (1.59 g Na2CO3 (Sigma S-7795) and 2.93 g NaHCO3 (Sigma S-5761) in 1 L MilliQ water, adjusted to pH 9.6). After overnight incubation at 4° C., wells are washed twice with 100 μL PBST (80 g NaCl, 2 g KCl (Sigma), 11.5 g Na2HPO4.7H2O and 2 g KH2PO4 in 10 L milliQ water; pH 7.4+0.05% Tween-20 (Sigma)) and blocked with 100 μL/well blocking buffer (5% non fat dry milk in PBS). After overnight incubation at 4° C., wells are washed twice with 100 μL PBST. The PBST is removed and 35 μL of sample is transferred to the ELISA plates. After 4 hr incubation at RT, plates are washed twice with PBST and incubated for 1 hr at 37° C. with 35 μL/well 1.5 mM APMA solution (a 10 mM APMA stock solution is prepared one day before (35.18 mg APMA (Sigma A-9563) in 10 mL 0.1M NaOH (Merck 1.06469.1000) and stored at 4° C. Before use, the 10 mM APMA stock solution is diluted to 1.5 mM in 1×APMA buffer (10× APMA buffer: 500 mM Tris (Roche 708976), 50 mM CaCl2 (Sigma C-5080), […] ZnCl2 (Sigma Z-0173), 1.5 M NaCl (Calbiochem 567441), 0.5% Brij35 (Sigma 430 AG-6) and adjust to pH 7.0). After activation of MMP13 by APMA, plates are washed again two times with 100 μL PBST/well and 35 μL of substrate solution is added to each well. Substrate solution is prepared as follows: OmniMMP Fluorescent substrate (Biomol P-126) stock solution (2 mM in DMSO, stored at −20° C.) is diluted in 1× OmniMMP buffer (10× OmniMMP buffer: 500 mM Hepes (Sigma H4034), 100 mM CaCl2 (Sigma C5080), 0.5% Brij35 (Sigma 430 AG-6; adjusted to pH 7.0) to a final concentration of 0.01 mM. After an overnight incubation at 37° C., the active MMP13 in the sample has cleaved the substrate and released fluorescence. Readout is performed on the EnVision (Perkin Elmer) using 320 nm excitation/405 nm emission filters.
Human chondrosarcoma cell line SW1353 was acquired from ATCC and grown in DMEM supplemented with 10% heat-inactivated FBS and 1× penicillin/streptomycin (Invitrogen) in a humidified 5% CO2 incubator at 37° C. Aliquots of the cells were frozen and cryopreserved in liquid nitrogen. Starting from a cryopreserved aliquot, cells are further grown by sub-culturing at a 1/5-1/8 ratio twice a week by trypsinisation.
Starting from the compound master stocks (all at 10 mM concentration in 100% DMSO) a 3-fold serial dilution is made in 96-well plates in 100% DMSO. Then, plates are futher diluted 50-fold in M199 medium supplemented with 1% heat-inactivated FBS to obtain an intermediate work stock.
At day 1, SW1353 cells are seeded in 96-well plates (flat bottom, tissue culture treated, Greiner) at a density of 15000 cells/well in 120 μL growth medium. The next day, 15 μL compound out of the intermediate work stock is added. After an incubation period of 60 minutes, which allows the compounds to equilibrate and enter the cells, cells are stimulated with a mixture of IL-1β and OSM, added in a volume of 15 μL to obtain final concentrations of 1 ng/ml IL-1β and 25 ng/ml OSM. For that, stocks of IL-1 (10 μg/ml) and OSM (25 μg/ml) (both PeproTech) were diluted to 10 ng/ml and 250 ng/ml respectively, in M199 medium supplemented with 1% FBS. After incubation for 48 hr, the cell supernatant was harvested and an appropriate dilution was processed in the MMP13 ELISA as described above, delivering raw data (RFU: relative fluorescence units). […]

For `CC(C)N1C[C@@H]2C[C@H]1CN2c1cccc(Nc2ncc(-c3coc(C(N)=O)c3)n3ccnc23)c1` [Compound 25, 4-(8-(3-((1S,4S)-5-isopropyl-2,5-diazabicyclo[2.2.1]heptan-2-yl)phenylamino)imidazo[1,2-a]pyrazin-5-yl)furan-2-carboxamide], the negative-log IC50 (pIC50) was under 6.00. `CC(C)N1C[C@@H]2C[C@H]1CN2c1cccc(Nc2ncc(-c3ccc4c(c3)CNC4=O)n3ncnc23)c1` [Compound 26, 5-(8-(3-((1S,4S)-5-isopropyl-2,5-diazabicyclo[2.2.1]heptan-2-yl)phenylamino)-[1,2,4]triazolo[1,5-a]pyrazin-5-yl)isoindolin-1-one] gave a pIC50 of under 6.00.
